Laboratory results as given in US8664226B2, “Compound having 3-heteroarylpyrimidin-4-(3H)-one structure and pharmaceutical preparation containing same” (Kowa Company, Ltd., priority 2009, dated 2014).

Tests used:
human PPARγ2 = biological target: T1, human PPARγ2 (Homo sapiens, UniProt P37231); assay: PPARγ activation activity, Gal4 chimera luciferase transfection assay using COS7 cells; assay type: cell-based; settings: COS7 cells, Gal4-human PPARγ2 LBD chimera, luciferase reporter, 16 hours; read-out: EC50
T1 construct: the amino acids 182 to 505 of human PPARγ2; expressed in transfected cells; host or cells: COS7 cells
Procedure: The agonistic activity of the compounds of the invention on PPARγ was measured based on the transfection assay using COS7 cells (DS Pharma Biomedical Co., Ltd., Osaka, Japan), which are the cell line derived from the kidney of the African green monkey. COS7 cells were cultured under 5% CO2 concentration, and DMEM medium containing 10% fetal bovine serum, glutamic acid, and antibiotics was used as a medium.
As an expression vector, a chimera in which DNA binding domain of Gal4, which is a yeast transcription factor, and ligand binding domain of human PPAR^γ2 are fused, i.e., a fused product between the amino acids 1 to 147 of Gal4 transcription factor and the amino acids 182 to 505 of human PPARγ2, was used. Furthermore, as a reporter vector, a firefly luciferase containing five copies of Gal4 recognition sequence in the promoter region was used. Plasmid transfection to the cells was performed according to a method which uses jetPEI (trade name, manufactured by Funakoshi Co., Ltd., Tokyo, Japan). Furthermore, β-galactosidase expression vector was employed as an internal standard.
After the transfection of the cells, the medium was replaced with a DMEM medium (containing 1% serum) added with the compound, and the cells were further cultured for 16 hours. After that, the luciferase activity and β-galactosidase activity in the cell lysis solution were measured.
For the present test, dimethyl sulfoxide (DMSO) was used for dissolution and dilution of the test compounds, and during the cell treatment, the DMSO concentration in DMEM medium (containing 1% serum) was adjusted to 0.1%. As a positive compound, rosiglitazone (trade name, manufactured by ALEXIS Corporation, Switzerland) was used. […] The 50% effective concentration of the test compound (EC50, 50% effect concentration) was calculated by using SAS Preclinical Package Ver5.0 (trade name, manufactured by SAS institute Japan Co., Tokyo, Japan), which is a statistical analysis program.

[1] = biological target: T2, angiotensin II type 1 receptor (Oryctolagus cuniculus, UniProt P34976); assay: Angiotensin II antagonistic activity in isolated rabbit blood vessels; settings: angiotensin II (10 nM)-induced contraction of rabbit thoracic aorta ring
T2 construct: By using a specimen of isolated rabbit blood vessels; from tissue; host or cells: rabbit thoracic aorta ring (New Zealand White, male)
T2 sequence (P34976 1-359): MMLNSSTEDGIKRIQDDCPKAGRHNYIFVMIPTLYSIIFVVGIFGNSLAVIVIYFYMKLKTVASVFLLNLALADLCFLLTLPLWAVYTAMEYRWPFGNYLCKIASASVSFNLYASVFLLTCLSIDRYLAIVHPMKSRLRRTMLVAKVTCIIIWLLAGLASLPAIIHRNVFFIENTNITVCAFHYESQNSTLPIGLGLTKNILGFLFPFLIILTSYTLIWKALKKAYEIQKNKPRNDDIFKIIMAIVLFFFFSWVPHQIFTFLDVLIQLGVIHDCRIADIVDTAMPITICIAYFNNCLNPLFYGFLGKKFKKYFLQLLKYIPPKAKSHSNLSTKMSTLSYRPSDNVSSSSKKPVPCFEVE
How it was run: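 Contraction of isolated rabbit vessel induced by angiotensin II, in a magnus bath at 37° C gassed with 95% O2/5% CO2. Responses expressed as % of the 10 nM angiotensin II contraction without compound, and IC50 calculated from the concentration-response curve.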

T1 sequence (P37231 182-505): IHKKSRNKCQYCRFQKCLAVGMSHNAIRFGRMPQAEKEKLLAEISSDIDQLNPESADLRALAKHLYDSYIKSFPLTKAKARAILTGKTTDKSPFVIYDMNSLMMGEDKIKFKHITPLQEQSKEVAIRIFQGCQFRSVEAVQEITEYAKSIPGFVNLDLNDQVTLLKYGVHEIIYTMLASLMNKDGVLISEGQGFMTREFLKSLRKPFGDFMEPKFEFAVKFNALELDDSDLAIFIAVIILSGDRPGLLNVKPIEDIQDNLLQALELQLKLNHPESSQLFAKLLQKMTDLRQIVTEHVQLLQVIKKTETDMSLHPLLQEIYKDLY
T1 sequence (P04386 1-147 partner limits assumed): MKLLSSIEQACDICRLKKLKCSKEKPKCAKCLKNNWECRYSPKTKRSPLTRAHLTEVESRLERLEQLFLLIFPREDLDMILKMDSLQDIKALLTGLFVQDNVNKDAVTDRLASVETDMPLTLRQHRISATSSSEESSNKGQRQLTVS

EC50 (human PPARγ2) [nM]	IC50 [1] [nM]	SMILES
1590	17	CCCCc1nc(C)n(-c2ncc(OCC)cn2)c(=O)c1Cc1ccc(-c2ccccc2-c2nnn[nH]2)cc1 [Example 21, 5-{[2′-(1H-tetrazol-5-yl)biphenyl-4-yl]methyl}-6-butyl-3-(5-ethoxypyrimidin-2-yl)-2-methylpyrimidin-4 (3H)-one]
1240	13	CCCCc1nc(C)n(-c2cc(OC)nc(OC)n2)c(=O)c1Cc1ccc(-c2ccccc2-c2nnn[nH]2)cc1 [Example 59]
